Target: tyrosine kinase
Assay: Tyrosine kinase inhibitory activity assay (self-made ELISA kit)
Format: biochemical
Conditions: tyrosine kinase tissue extract, 37 °C 30 min
Protocol: The 16 designed compounds were first evaluated for tyrosine kinase inhibitory activity using ELISA assay. Indo 5 was used as a reference compound. The kit was self-made and is a very effective and economical method for preliminary tyrosine kinase inhibitory activity evaluation.
The tyrosine kinase inhibitory activity assay was performed as described in the literature. Details of the experimental procedures are presented in Supplementary Materials associated with this article. The IC50 was calculated using GraphPad Prism Software (GraphPad Prism 5, La Jolla, CA, USA). For each concentration, at least three wells were performed to calculate the average parameter.
100μL to each well. The plate was covered with its lid, and incubated at 4℃ overnight (10-12 hours). Then it was washed with 200μL elution buffer once, and dried at 37℃ for 2 h. After that, it was washed with 10mM PBS once, dried at room temperature, and then stored at 4℃ […]
2.1.5. Groups: Blank control: 60μL 1×tyrosine kinase buffer + 50μL 1×tyrosine kinase buffer containing ATP; Negative control: 10μL 1×tyrosine kinase buffer + 50μL 1×tyrosine kinase buffer containing tissue extract + 50μL 1×tyrosine kinase buffer containing ATP; Positive control: 10μL 1×tyrosine kinase buffer containing L029 + 50μL 1×tyrosine kinase buffer containing tissue extract + 50μL 1×tyrosine kinase buffer containing ATP; Vehicle control: 10μL 1×tyrosine kinase buffer containing DMSO + 50μL 1×tyrosine kinase buffer containing tissue extract + 50μL 1×tyrosine kinase buffer containing ATP; Compounds to be screened: 10μL 1×tyrosine kinase buffer containing compounds to be tested + 50μL 1× tyrosine kinase buffer containing tissue extract + 50μL 1×tyrosine kinase buffer containing ATP. (First, L029 and the compounds were allowed to interact with the tyrosine kinase tissue extract at room temperature for 10 min in advance, and did the same to the Blank control and the Vehicle control, then 50μL 1×tyrosine kinase buffer containing ATP was added to […]
2.1.6. Tyrosine kinase inhibitory activity assay: 1×tyrosine kinase buffer was prepared by evenly mixing 1 mL 10× tyrosine kinase buffer with 9 mL DDW. The tissue extract was diluted with 1×tyrosine kinase buffer appropriately, mixed with it gently and evenly, and placed on ice. ATP stock solution was mixed with 1×tyrosine kinase buffer at the final concentration of 3mM , and placed on ice. The microplate was added in respective wells with the groups formulated as above, covered with the lid, and incubated at 37℃ for 30 min. The microplate was washed with 200μL elution buffer and tapped until the residual buffer was removed, and this procedure was repeated for five times. To each well, 100μL antibody diluent (antibody elution buffer diluted at a ratio of 1:2000) was added. The microplate was covered with the lid, and incubated at room temperature for 30 min. OPD solution was prepared by addition of 4 mg OPD into a mixture of 4.86 mL 0.1 mol/L citric acid solution and 5.14 mL 0.2 mol/L Na2HPO4 solution, followed by addition of 50μL 30% H202 to allow for complete dissolution, and then was protected from light. The antibody solution was […]
removed. The microplate was washed with 200μL elution buffer and tapped until the residual buffer was removed, and this procedure was repeated for five times. 100μL freshly prepared OPD was added, and reacted at room temperature light tight for precisely 7 min. Negative […]
100μL 2.5 N H2SO4 was added to terminate the reaction. OD
2.1.7. Sample screening: Samples were screened preliminarily by using triplicate assay. The effect of the samples on tyrosine kinase inhibitory activity was tested, and the inhibition rate was calculated. Inhibition rate (%)=(ODnegative control – ODsample) / (ODnegative control* – ODblank) × 100%; *While calculating inhibition rate of positive drugs, ODnegative control in the equation was replaced with ODvehicle control to exclude the influence of DMSO on tyrosine kinase activity. […]
2. S. Praveen Kumar, Jiri Gut, Rita C. […]

Row | IC50 [µM] | SMILES
1 | 2.23 ± 0.14 | COc1cccc(C[S+]([O-])/C=C2\C(=O)Nc3ccccc32)c1 (stereo not drawn) [Compound 6k, (Z)-3-(((3-Methoxybenzyl)sulfinyl)methylene)indolin-2-one]
2 | 3.85 ± 0.09 | Cc1cccc(C[S+]([O-])/C=C2\C(=O)Nc3ccccc32)c1 (stereo not drawn) [Compound 6m, (Z)-3-(((3-Methylbenzyl)sulfinyl)methylene)indolin-2-one]
3 | 4.39 ± 0.23 | Cc1ccc(C[S+]([O-])/C=C2\C(=O)Nc3ccccc32)cc1 (stereo not drawn) [Compound 6n, (Z)-3-(((4-Methylbenzyl)sulfinyl)methylene)indolin-2-one]
4 | 11.6 ± 0.79 | Cc1ccccc1NS(=O)(=O)c1ccc2c(c1)/C(=C/c1nc3ccccc3[nH]1)C(=O)N2 [Indo 5, reference compound]

System: human cervical carcinoma cell line HeLa
Assay: MTS cytotoxicity assay, HeLa
Format: cell-based
Conditions: 48 h treatment
From the text: (§1) To investigate the relationship between anticancer activity and tyrosine kinase inhibitory activity, these compounds were further evaluated for in vitro cytotoxicity against five cancer cell lines (human cervical carcinoma cell line HeLa, human breast carcinoma cell line MCF-7, human liver carcinoma cell line HepG2, human tongue carcinoma cell line SCC-15, and human lung carcinoma A549) using MTS assay. Indo 5 was also used as a reference compound.
(§2) The five types of human cancer cell lines (HeLa, HepG2, MCF-7, SCC-15, and A549) were cultured aseptically using Dulbecco’s modified Eagle’s medium (DMEM) supplemented with 10% (v/v) fetal bovine serum (FBS) and penicillin (100 units mL^−1)/streptomycin ([…]), at pH 7.2 and 5% CO2 humidified atmosphere at 37 °C. After attaining 80% confluence, the cells were trypsinized with 0.25 trypsin–EDTA and diluted with media to a fixed number of cells.
(§3) Cytotoxic activity was assessed using the standard MTS method by using triplicate assay. The cells were seeded into 96-well plates containing the medium at the density of 4000–6000 cells/mL (100 μL/well). The compounds were dissolved in DMSO to the concentration of 100 mM and diluted in a culture medium to the concentrations needed. After 24 h, the cultured cells were treated with concentrations of synthesized compounds (3.125 μM to 100 μM for tumor cells) for 48 h. After 48 h of incubation, the supernatant was replaced by fresh medium (100 μL/well) and 10 μL MTS reagent ([3-(4,5-dimethylthiazol-2-yl)-5-(3-carboxymethoxyphenyl)-2-(4-sulfophenyl)-2H-tetrazolium, inner salt]) was added to each well. The plate was further incubated for 3 h at 37 °C in 5% CO2. The optical absorbance in individual wells was determined at 492 nm using a microplate reader. The inhibition rates were calculated by the following formula: Inhibition rate (%) = (ODnegative control − ODsample)/(ODnegative control − ODblank) × 100%
(§4) IC50 was calculated using GraphPad Prism Software (GraphPad Prism 5, La Jolla, CA, USA). For each concentration, at least three wells were performed to calculate the average parameter.

Row | SMILES | IC50 [µM]
5 | Cc1ccccc1NS(=O)(=O)c1ccc2c(c1)/C(=C/c1nc3ccccc3[nH]1)C(=O)N2 [Indo 5, reference compound] | 19.6 ± 0.46

Same assay, conditions: Homo sapiens, HeLa, 48 h treatment

Row | SMILES | IC50 [µM]
6 | COc1cccc(C[S+]([O-])/C=C2\C(=O)Nc3ccccc32)c1 (stereo not drawn) [Compound 6k, (Z)-3-(((3-Methoxybenzyl)sulfinyl)methylene)indolin-2-one] | 22.7 ± 0.64
7 | Cc1cccc(C[S+]([O-])/C=C2\C(=O)Nc3ccccc32)c1 (stereo not drawn) [Compound 6m, (Z)-3-(((3-Methylbenzyl)sulfinyl)methylene)indolin-2-one] | 27 ± 1.2
8 | Cc1ccc(C[S+]([O-])/C=C2\C(=O)Nc3ccccc32)cc1 (stereo not drawn) [Compound 6n, (Z)-3-(((4-Methylbenzyl)sulfinyl)methylene)indolin-2-one] | 27.8 ± 0.78

System: human breast carcinoma cell line MCF-7
Assay: MTS cytotoxicity assay, MCF-7
Format: cell-based
Conditions: 48 h treatment
From the text: as §1, §2, §3, §4

Row | SMILES | IC50 [µM]
9 | Cc1ccccc1NS(=O)(=O)c1ccc2c(c1)/C(=C/c1nc3ccccc3[nH]1)C(=O)N2 [Indo 5, reference compound] | 24.2 ± 0.49

Same assay, conditions: Homo sapiens, MCF7, 48 h treatment

Row | SMILES | IC50 [µM]
10 | COc1cccc(C[S+]([O-])/C=C2\C(=O)Nc3ccccc32)c1 (stereo not drawn) [Compound 6k, (Z)-3-(((3-Methoxybenzyl)sulfinyl)methylene)indolin-2-one] | 59.1 ± 37
11 | Cc1cccc(C[S+]([O-])/C=C2\C(=O)Nc3ccccc32)c1 (stereo not drawn) [Compound 6m, (Z)-3-(((3-Methylbenzyl)sulfinyl)methylene)indolin-2-one] | 41.4 ± 2.2
12 | Cc1ccc(C[S+]([O-])/C=C2\C(=O)Nc3ccccc32)cc1 (stereo not drawn) [Compound 6n, (Z)-3-(((4-Methylbenzyl)sulfinyl)methylene)indolin-2-one] | 55.1 ± 1.51

System: human liver carcinoma cell line HepG2
Assay: MTS cytotoxicity assay, HepG2
Format: cell-based
Conditions: 48 h treatment
From the text: as §1, §2, §3, §4

Row | SMILES | IC50 [µM]
13 | Cc1ccccc1NS(=O)(=O)c1ccc2c(c1)/C(=C/c1nc3ccccc3[nH]1)C(=O)N2 [Indo 5, reference compound] | 22.2 ± 0.41

Same assay, conditions: Homo sapiens, HepG2, 48 h treatment

Row | SMILES | IC50 [µM]
14 | COc1cccc(C[S+]([O-])/C=C2\C(=O)Nc3ccccc32)c1 (stereo not drawn) [Compound 6k, (Z)-3-(((3-Methoxybenzyl)sulfinyl)methylene)indolin-2-one] | 49.4 ± 1.33
15 | Cc1cccc(C[S+]([O-])/C=C2\C(=O)Nc3ccccc32)c1 (stereo not drawn) [Compound 6m, (Z)-3-(((3-Methylbenzyl)sulfinyl)methylene)indolin-2-one] | 36 ± 2.13
16 | Cc1ccc(C[S+]([O-])/C=C2\C(=O)Nc3ccccc32)cc1 (stereo not drawn) [Compound 6n, (Z)-3-(((4-Methylbenzyl)sulfinyl)methylene)indolin-2-one] | 59 ± 0.97

System: human tongue carcinoma cell line SCC-15
Assay: MTS cytotoxicity assay, SCC-15
Format: cell-based
Conditions: 48 h treatment
From the text: as §1, §2, §3, §4

Row | SMILES | IC50 [µM]
17 | Cc1ccccc1NS(=O)(=O)c1ccc2c(c1)/C(=C/c1nc3ccccc3[nH]1)C(=O)N2 [Indo 5, reference compound] | 28.2 ± 1.08

Same assay, conditions: Homo sapiens, SCC-15, 48 h treatment

Row | SMILES | IC50 [µM]
18 | COc1cccc(C[S+]([O-])/C=C2\C(=O)Nc3ccccc32)c1 (stereo not drawn) [Compound 6k, (Z)-3-(((3-Methoxybenzyl)sulfinyl)methylene)indolin-2-one] | 86.7 ± 5.16
19 | Cc1cccc(C[S+]([O-])/C=C2\C(=O)Nc3ccccc32)c1 (stereo not drawn) [Compound 6m, (Z)-3-(((3-Methylbenzyl)sulfinyl)methylene)indolin-2-one] | 50.3 ± 1.51
20 | Cc1ccc(C[S+]([O-])/C=C2\C(=O)Nc3ccccc32)cc1 (stereo not drawn) [Compound 6n, (Z)-3-(((4-Methylbenzyl)sulfinyl)methylene)indolin-2-one] | 90.5 ± 2.32

System: human lung carcinoma A549
Assay: MTS cytotoxicity assay, A549
Format: cell-based
Conditions: 48 h treatment
From the text: as §1, §2, §3, §4

Row | SMILES | IC50 [µM]
21 | Cc1ccccc1NS(=O)(=O)c1ccc2c(c1)/C(=C/c1nc3ccccc3[nH]1)C(=O)N2 [Indo 5, reference compound] | 29.16 ± 0.29

Same assay, conditions: Homo sapiens, A549, 48 h treatment

Row | SMILES | IC50 [µM]
22 | COc1cccc(C[S+]([O-])/C=C2\C(=O)Nc3ccccc32)c1 (stereo not drawn) [Compound 6k, (Z)-3-(((3-Methoxybenzyl)sulfinyl)methylene)indolin-2-one] | 62.3 ± 2
23 | Cc1cccc(C[S+]([O-])/C=C2\C(=O)Nc3ccccc32)c1 (stereo not drawn) [Compound 6m, (Z)-3-(((3-Methylbenzyl)sulfinyl)methylene)indolin-2-one] | 79.32 ± 0.79
24 | Cc1ccc(C[S+]([O-])/C=C2\C(=O)Nc3ccccc32)cc1 (stereo not drawn) [Compound 6n, (Z)-3-(((4-Methylbenzyl)sulfinyl)methylene)indolin-2-one] | 59.6 ± 0.97

System: not given
Assay: not given
Conditions: not given

Row | melting point [°C] | SMILES
25 | 181 to 182 | COc1cccc(C[S+]([O-])/C=C2\C(=O)Nc3ccccc32)c1 (stereo not drawn) [Compound 6k, (Z)-3-(((3-Methoxybenzyl)sulfinyl)methylene)indolin-2-one]
26 | 174 to 175 | Cc1cccc(C[S+]([O-])/C=C2\C(=O)Nc3ccccc32)c1 (stereo not drawn) [Compound 6m, (Z)-3-(((3-Methylbenzyl)sulfinyl)methylene)indolin-2-one]
27 | 186 to 188 | Cc1ccc(C[S+]([O-])/C=C2\C(=O)Nc3ccccc32)cc1 (stereo not drawn) [Compound 6n, (Z)-3-(((4-Methylbenzyl)sulfinyl)methylene)indolin-2-one]
